Experimental findings from ChEMBL document CHEMBL4316584, “All that glitters is not gold: Panning cytotoxic natural products and derivatives with a fused tricyclic backbone by the estimation of their leadlikeness for cancer treatment” (Eur J Med Chem, 2019) are described below.

Each structure is given as a SMILES string.

The subject of the first assay is HeLa. Description: Cytotoxicity against human HeLa cells after 48 hrs by MTT assay. The format is functional, cell-based.
Settings: not given
`CC(C)C1=C(O)C(=O)C2=C(C=C[C@H]3C(C)(C)CCC[C@]23C)C1=O`: half-maximal inhibition (IC50) was put at 6.56 µM.
Still for that read-out and setting: for `COc1cc2oc3cc(O)c(OC)c(CC=C(C)C)c3c(=O)c2c(O)c1CC=C(C)C` the value was 12.8 µM; for `CC(C)c1cc2c(cc1O)[C@@]1(C)CCCC(C)(C)[C@@H]1[C@@H](O)C2=O`, 7.7 µM.
The same measure, in the same setting: for `Nc1ccc(C(=O)/C=C/c2cc3c([nH]c4ccccc43)c(-c3ccc(F)cc3)n2)cc1` the value was 18.5 µM.
Turning to `COc1cc(-c2nc(/C=C/C(=O)c3ccc(N)cc3)cc3c2[nH]c2ccccc23)ccc1F`, the IC50 (in general, the midpoint of a concentration-inhibition curve) stood at 15.2 µM.
On the same count and under the same terms, as for `COc1cc(-c2nc(/C=C/C(=O)c3ccc(F)cc3)cc3c2[nH]c2ccccc23)cc(OC)c1OC`, the figure is 13.4 µM; as for `COc1ccc(-c2nc(/C=C/C(=O)c3ccc(N)cc3)cc3c2[nH]c2ccccc23)cc1OC`, 13.5 µM.
On the same count and under the same terms, for `COc1cc(-c2nc(/C=C/C(=O)c3ccc(O)cc3)cc3c2[nH]c2ccccc23)cc(OC)c1OC` the value was 12.5 µM; for `NCCCCNCCNCc1c2ccccc2c(CNCCNCCCCN)c2ccccc12`, 20 µM; for `Cc1cc(C)cc(NC(=O)[C@H](C)NC(=S)NC(=O)[C@]2(C)CCC[C@]3(C)c4ccc(C(C)C)cc4CC[C@@H]23)c1`, 18.6 µM.
Still for that read-out and setting: for `CC(C)c1cc(C(=O)O)c2c(c1O)O[C@H]1C(C)(C)CCC[C@]21C` the value was 17.8 µM.
Compound `COc1cc(-c2nc(C3CC(c4cccs4)=NN3C(C)=O)cc3c2[nH]c2ccccc23)cc(OC)c1OC` (stereo not drawn) came in with an IC50 of 4.51 µM.
Same read-out and setting: for `CC(=O)N1N=C(c2cccs2)CC1c1cc2c([nH]c3ccccc32)c(-c2ccc(F)c(F)c2)n1` (stereo not drawn) the value was 8.7 µM.
For the compound `COc1cc(NC(=O)[C@H](Cc2ccccc2)NC(=S)NC(=O)[C@]2(C)CCC[C@]3(C)c4ccc(C(C)C)cc4CC[C@@H]23)cc(OC)c1OC`, the IC50 is 17.5 µM.
The compound `COc1c(O)cc2oc3cc(O)c(C/C=C(/C)CO)c(O)c3c(=O)c2c1CCC(C)(O)CCC=C(C)C` (stereo not drawn) yielded an IC50 of 17.2 µM.
Still for that read-out and setting: as for `O=C(/C=C/c1cc2c([nH]c3ccccc32)c(-c2ccc(C(F)(F)F)cc2)n1)c1cccs1`, the figure is 9.54 µM; as for `Cc1cc(C)cc(NC(=O)[C@H](Cc2ccccc2)NC(=S)NC(=O)[C@]2(C)CCC[C@]3(C)c4ccc(C(C)C)cc4CC[C@@H]23)c1`, 15.8 µM.
With `COc1cc(-c2nc(Cn3cc(CN4C(=O)c5ccc(C)cc5C4=O)nn3)cc3c2[nH]c2ccccc23)cc(OC)c1OC`, the IC50 is 15.6 µM.
`COc1ccc(NC(=O)[C@H](Cc2ccccc2)NC(=S)NC(=O)[C@]2(C)CCC[C@]3(C)c4ccc(C(C)C)cc4CC[C@@H]23)cc1`: the IC50 amounted to 15.6 µM.
Same read-out and setting: as for `COc1cc(NC(=O)[C@H](C)NC(=S)NC(=O)[C@]2(C)CCC[C@]3(C)c4ccc(C(C)C)cc4CC[C@@H]23)cc(OC)c1OC`, the figure is 18.1 µM.
Same read-out and setting: as for `CC(C)c1ccc2c(c1)CC[C@H]1[C@](C)(C(=O)NC(=S)N[C@@H](Cc3ccccc3)C(=O)Nc3ccccc3Cl)CCC[C@]21C`, the figure is 17 µM; as for `CC(=O)N1N=C(c2cccs2)CC1c1cc2c([nH]c3ccccc32)c(-c2ccc(C(F)(F)F)cc2)n1` (stereo not drawn), 19 µM.
On the same count and under the same terms, as for `CCOc1ccc(/C=C2\CCc3c([nH]c4ccc(C)cc34)C2=O)cc1OCC`, the figure is 0.8 µM; as for `CC(=O)N1N=C(c2ccco2)CC1c1cc2c([nH]c3ccccc32)c(-c2ccc(F)c(F)c2)n1` (stereo not drawn), 3.38 µM.
In turn, `Cc1cccc2c1ccc1cc(C(C)CO)c(=O)oc12` (stereo not drawn) came in with an IC50 of 0.86 µM.
Same read-out and setting: as for `CCOc1ccc(/C=C2\CCc3c([nH]c4c(C)cccc34)C2=O)cc1OCC`, the figure is 1.5 µM.
`CC(=O)N1N=C(c2ccc[nH]2)CC1c1cc2c([nH]c3ccccc32)c(-c2ccc(C(F)(F)F)cc2)n1` (stereo not drawn) showed an IC50 of 6.24 µM.
Same read-out and setting: for `CCOc1ccc(/C=C2\CCc3c([nH]c4ccc(Cl)cc34)C2=O)cc1OCC` the value was 2.73 µM; for `CC(C)c1ccc2c(c1)CC[C@H]1[C@](C)(C(=O)NC(=S)N[C@@H](Cc3ccccc3)C(=O)Nc3ccc(Br)cc3)CCC[C@]21C`, 15.7 µM.
Take `CC(C)c1ccc2c(c1)CC[C@H]1[C@](C)(C(=O)NC(=S)N[C@@H](Cc3ccccc3)C(=O)Nc3ccccc3Br)CCC[C@]21C`: inhibition was half-maximal at 12.7 µM (IC50).
Same read-out and setting: as for `CC(C)c1ccc2c(c1)CC[C@H]1[C@](C)(C(=O)NC(=S)N[C@@H](Cc3ccccc3)C(=O)Nc3cccc4ccccc34)CCC[C@]21C`, the figure is 12.8 µM; as for `COc1cc(-c2nc(/C=C/C(=O)c3cccs3)cc3c2[nH]c2ccccc23)cc(OC)c1OC`, 6.91 µM; as for `CC(C)c1ccc2c(c1)CC[C@H]1[C@](C)(C(=O)NC(=S)N[C@@H](C)C(=O)Nc3ccccn3)CCC[C@]21C`, 14.3 µM.
As to `CC(C)c1ccc2c(c1)CC[C@H]1[C@](C)(C(=O)NC(=S)N[C@@H](C)C(=O)Nc3ccccc3Cl)CCC[C@]21C`, the IC50 is 19.7 µM.
As for `COc1c(O)cc2oc3cc(O)c(C/C=C(/C)CO)c(O)c3c(=O)c2c1C/C=C(\C)CCCC(C)(C)O`, the IC50 came out at 16.7 µM.
Same read-out and setting: for `Cc1ccccc1NC(=O)[C@H](Cc1ccccc1)NC(=S)NC(=O)[C@]1(C)CCC[C@]2(C)c3ccc(C(C)C)cc3CC[C@@H]12` the value was 17.7 µM.
Still for that read-out and setting: for `CC(C)c1ccc2c(c1)CC[C@H]1[C@](C)(C(=O)NC(=S)N[C@@H](C)C(=O)Nc3ccc(Br)cc3)CCC[C@]21C` the value was 19 µM; for `Cc1cccc2c1ccc1cc(C(C)C)c(=O)oc12`, 7.92 µM; for `CC(C)c1ccc2c(c1)CC[C@H]1[C@](C)(C(=O)NC(=S)N[C@@H](Cc3ccccc3)C(=O)Nc3ccc(Cl)cc3)CCC[C@]21C`, 17.2 µM.
The same measure, in the same setting: as for `O=C(/C=C/c1cc2c([nH]c3ccccc32)c(-c2ccc(C(F)(F)F)cc2)n1)c1ccc[nH]1`, the figure is 7.24 µM; as for `Cc1ccc(NC(=O)[C@H](Cc2ccccc2)NC(=S)NC(=O)[C@]2(C)CCC[C@]3(C)c4ccc(C(C)C)cc4CC[C@@H]23)cc1`, 19.1 µM; as for `CC(C)c1ccc2c(c1)CC[C@H]1[C@](C)(C(=O)NC(=S)N[C@@H](Cc3ccccc3)C(=O)Nc3ccccn3)CCC[C@]21C`, 6.58 µM.
On to `C=CCc1cc2oc3cc(OC)cc(O)c3c(=O)c2c(OC)c1O`, for which the IC50 was 18.7 µM.
Same read-out and setting: as for `CC(C)c1ccc2c(c1)CC[C@H]1[C@](C)(C(=O)NC(=S)N[C@@H](Cc3ccccc3)C(=O)Nc3ccccc3F)CCC[C@]21C`, the figure is 18.8 µM; as for `COc1c(O)cc2oc3cc(O)c(CC=C(C)C)c(O)c3c(=O)c2c1C/C=C(\C)CCC=C(C)C` [COWANIN], 11.7 µM; as for `COc1cc2c(=O)c3c(O)c(C/C=C(\C)CCC=C(C)C)c(O)cc3oc2cc1O` [COWAXANTHONE], 15.8 µM.
On the same count and under the same terms, for `CC(C)c1ccc2c(c1)CC[C@H]1[C@](C)(CO)CCC[C@]21C` [POMIFERIN A] the value was 15.7 µM.

For a further assay, the system named is HCT-116. Description: Cytotoxicity against human HCT116 cells after 48 hrs by MTT assay. In kind it is functional, cell-based. The note with it: HCT-116, 48 h. Background: Tetrazolium assays rely on reduction of a dye to a coloured formazan, in cell work by metabolically active cells.
`CCOC(=O)CN(C)CC1CCc2c(n(C)c3ccccc23)C1=O` (stereo not drawn) gave an IC50 of 18.9 µM.
Still for that read-out and setting: as for `C[C@]1(O)Cc2c(O)c3c(c(O)c2[C@H](O)[C@H]1O)C(=O)C(SCCCO)=C(SCCCO)C3=O`, the figure is 3.08 µM.
Still for that read-out and setting: as for `Cn1c2c(c3ccccc31)CCC(CN1CCOCC1)C2=O` (stereo not drawn), the figure is 4.73 µM; as for `CCCCCCOc1cccc2c1C(=O)c1c(OCCCCCC)cc(Cn3cnc4c(N)ncnc43)cc1C2=O`, 8.1 µM; as for `CC1CCN(C2=CC(=O)c3c(O)c4c(c(O)c3C2=O)C[C@](C)(O)[C@H](O)[C@H]4O)CC1`, 3.25 µM.
The same measure, in the same setting: for `Nc1ncnc2c1ncn2Cc1cc(O)c2c(c1)C(=O)c1cccc(O)c1C2=O` the value was 7.8 µM; for `Cn1c2c(c3ccccc31)CCC(CN1CCCCC1)C2=O` (stereo not drawn), 2.33 µM; for `CCCCCCNC1=CC(=O)c2c(O)c3c(c(O)c2C1=O)C[C@](C)(O)[C@H](O)C3`, 3.14 µM.
`CC(C)=CCn1c2c(c3ccccc31)CCC(CN1CCOCC1)C2=O` (stereo not drawn) registered an IC50 of 4.55 µM.
The same measure, in the same setting: as for `CCN(C)CC1CCc2c(n(C)c3ccccc23)C1=O` (stereo not drawn), the figure is 11.8 µM.
Same read-out and setting: as for `CC1CCN(C2=CC(=O)c3c(O)c4c(c(O)c3C2=O)C[C@](C)(O)[C@H](O)C4)CC1`, the figure is 14.9 µM.
Still for that read-out and setting: for `C[C@]1(O)Cc2c(O)c3c(c(O)c2C[C@H]1O)C(=O)C=C(N1CCCCC1)C3=O` the value was 16.3 µM.
In turn, `Cn1c2c(c3ccccc31)CCC(CN1CCCC1)C2=O` (stereo not drawn) came in with an IC50 of 12.8 µM.
Same read-out and setting: for `CO[C@H]1[C@H](O)C[C@@H](O[C@@H]2C[C@H](Oc3cc4cc5c(c(O)c4c(O)c3C)C(=O)[C@@H](O[C@H]3C[C@H](O[C@H]4C[C@H](O[C@H]6C[C@@](C)(O)[C@@H](OC(C)=O)[C@H](C)O6)[C@H](O)[C@@H](C)O4)[C@H](O)[C@@H](C)O3)[C@H]([C@H](OC)C(=O)[C@@H](O)[C@@H](C)O)C5)O[C@H](C)[C@H]2OC(C)=O)O[C@@H]1C` the value was 0.3 µM.
Regarding `CCSC1=C(SCC)C(=O)c2c(O)c3c(c(O)c2C1=O)C[C@](C)(O)[C@H](O)[C@H]3O`, it took 0.95 µM to reach half-maximal inhibition (IC50).
On the same count and under the same terms, for `C[C@]1(O)Cc2c(O)c3c(c(O)c2[C@H](O)[C@H]1O)C(=O)C=C(Nc1ccccc1)C3=O` the value was 4.84 µM; for `CN1CCN(CC2CCc3c(n(C)c4ccccc34)C2=O)CC1` (stereo not drawn), 14 µM; for `CCCCCCSC1=C(SCCCCCC)C(=O)c2c(O)c3c(c(O)c2C1=O)C[C@](C)(O)[C@H](O)[C@H]3O`, 0.74 µM.
As for `CNC1=CC(=O)c2c(O)c3c(c(O)c2C1=O)C[C@](C)(O)[C@H](O)C3`, half-maximal inhibition (IC50) was put at 16.6 µM.
On the same count and under the same terms, for `C[C@]1(O)Cc2c(O)c3c(c(O)c2[C@H](O)[C@H]1O)C(=O)C=C(NCc1ccc(F)cc1)C3=O` the value was 4.92 µM; for `Cn1c2c(c3ccccc31)CCC(Cn1ccnc1)C2=O` (stereo not drawn), 3.12 µM.
As for `CCCCCCSC1=C(SCCCCCC)C(=O)c2c(O)c3c(c(O)c2C1=O)C[C@@H](O)[C@@](C)(O)C3`, half-maximal inhibition (IC50) was put at 2.94 µM.
The same measure, in the same setting: for `CCCCSC1=C(SCCCC)C(=O)c2c(O)c3c(c(O)c2C1=O)C[C@@H](O)[C@@](C)(O)C3` the value was 2.75 µM; for `CCCCNC1=CC(=O)c2c(O)c3c(c(O)c2C1=O)C[C@](C)(O)[C@H](O)C3`, 3.29 µM.
Same read-out and setting: as for `O=C1c2cccc(O)c2C(=O)c2c(O)cc(Cn3cc(F)c(=O)[nH]c3=O)cc21`, the figure is 2.8 µM.
The same measure, in the same setting: as for `C[C@]1(O)Cc2c(O)c3c(c(O)c2C[C@H]1O)C(=O)C=C(NCc1ccc(F)cc1)C3=O`, the figure is 7.09 µM.
